Test results reported in patent US9351974B2, “Substituted pteridinones for the treatment of cancer” (OSI Pharmaceuticals, LLC, priority 2011, dated 2016).

Target: T1, His-tagged full-length RSK2 (RPS6KA3) (Homo sapiens, UniProt P51812)
T1 construct: His-tagged full-length RSK2 (RPS6KA3, Invitrogen PV3323); His; purchased Invitrogen PV3323
Assay: RSK2 Omnia Assay for compound IC50 determination
Type: biochemical
Settings: ATP 15 μM, n=2, read-out: Mean RSK2 Biochem IC50
Procedure, shortened: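 Initial-rate slopes from continuous kinetic reads were fitted to a four-parameter equation for IC50 (n=2). Ki was then derived by Cheng-Prusoff assuming ATP-competitive inhibition. Reactions contained 15 μM ATP (Km 16.3 μM), 5 μM Omnia ST Peptide 6, and […] in 50 mM HEPES pH 7.5, 10 mM MgCl2, 1 mM DTT, 1% DMSO. Compounds spanned 11 threefold steps, […] final.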

T1 sequence (P51812 whole entry): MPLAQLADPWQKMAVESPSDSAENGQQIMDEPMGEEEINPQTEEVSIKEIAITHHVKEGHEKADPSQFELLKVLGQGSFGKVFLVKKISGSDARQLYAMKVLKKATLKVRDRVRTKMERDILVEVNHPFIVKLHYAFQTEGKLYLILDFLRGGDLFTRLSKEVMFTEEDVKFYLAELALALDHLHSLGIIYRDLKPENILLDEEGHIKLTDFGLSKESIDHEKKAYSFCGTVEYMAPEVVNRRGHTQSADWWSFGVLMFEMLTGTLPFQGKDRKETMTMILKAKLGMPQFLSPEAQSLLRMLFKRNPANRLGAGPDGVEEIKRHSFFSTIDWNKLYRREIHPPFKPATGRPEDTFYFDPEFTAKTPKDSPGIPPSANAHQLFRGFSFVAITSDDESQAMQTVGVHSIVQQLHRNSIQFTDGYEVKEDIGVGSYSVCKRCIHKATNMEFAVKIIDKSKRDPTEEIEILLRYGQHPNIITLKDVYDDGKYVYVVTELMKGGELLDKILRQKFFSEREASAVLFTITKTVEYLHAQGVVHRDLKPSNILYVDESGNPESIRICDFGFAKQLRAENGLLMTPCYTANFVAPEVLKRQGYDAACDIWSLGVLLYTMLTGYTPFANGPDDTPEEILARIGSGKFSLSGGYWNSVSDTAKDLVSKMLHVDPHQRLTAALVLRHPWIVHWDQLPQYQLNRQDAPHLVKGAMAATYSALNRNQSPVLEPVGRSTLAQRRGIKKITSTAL

| SMILES | IC50 |
| --- | --- |
| Cc1n[nH]c2ccc(Nc3ncc4c(n3)N(C3CCCCC3)[C@H](C)C(=O)N4c3cccc(C#N)c3)cc12 [compound 103, 3-[(7R)-8-cyclohexyl-7-methyl-2-[(3-methyl-1H-indazol-5-yl)amino]-6-oxo-7,8-dihydropteridin-5(6H)-yl]benzonitrile] | 0.1 to 1 µM |
| C[C@@H]1C(=O)N(c2cccc(C#N)c2)c2cnc(Nc3ccc(F)c4[nH]ncc34)nc2N1C1CCCCC1 [compound 107, 3-[(7R)-8-cyclohexyl-2-[(7-fluoro-1H-indazol-4-yl)amino]-7-methyl-6-oxo-7,8-dihydropteridin-5(6H)-yl]benzonitrile] | 0.1 to 1 µM |
| C[C@@H]1C(=O)N(c2cccc(C#N)c2)c2cnc(Nc3ccc4sncc4c3)nc2N1C1CCCCC1 [compound 109, 3-[(7R)-2-(1,2-benzothiazol-5-ylamino)-8-cyclohexyl-7-methyl-6-oxo-7,8-dihydropteridin-5(6H)-yl]benzonitrile] | 0.1 to 1 µM |
| COc1n[nH]c2ccc(Nc3ncc4c(n3)N(C3CCCCC3)[C@H](C)C(=O)N4c3cccc(C#N)c3)cc12 [compound 116, 3-[(7R)-8-cyclohexyl-2-[(3-methoxy-1H-indazol-5-yl)amino]-7-methyl-6-oxo-7,8-dihydropteridin-5(6H)-yl]benzonitrile] | ≤ 0.1 µM |
| Cc1c(Nc2ncc3c(n2)N(C2CCCCC2)[C@H](C)C(=O)N3c2cccc(C#N)c2)ccc2[nH]ncc12 [compound 117, 3-[(7R)-8-cyclohexyl-7-methyl-2-[(4-methyl-1H-indazol-5-yl)amino]-6-oxo-7,8-dihydropteridin-5(6H)-yl]benzonitrile] | 0.1 to 1 µM |
| C[C@@H]1C(=O)N(c2cccc(C#N)c2)c2cnc(Nc3cc4cn[nH]c4cc3Cl)nc2N1C1CCCCC1 [compound 118, 3-[(7R)-2-[(6-chloro-1H-indazol-5-yl)amino]-8-cyclohexyl-7-methyl-6-oxo-7,8-dihydropteridin-5(6H)-yl]benzonitrile] | ≤ 0.1 µM |
| COc1cc2[nH]ncc2cc1Nc1ncc2c(n1)N(C1CCCCC1)[C@H](C)C(=O)N2c1cccc(C#N)c1 [compound 119, 3-[(7R)-8-cyclohexyl-2-[(6-methoxy-1H-indazol-5-yl)amino]-7-methyl-6-oxo-7,8-dihydropteridin-5(6H)-yl]benzonitrile] | > 1 µM |
| C[C@@H]1C(=O)N(c2cccc(F)c2)c2cnc(Nc3ccc4[nH]ncc4c3F)nc2N1C1CCCCC1 [compound 120, (7R)-8-cyclohexyl-2-[(4-fluoro-1H-indazol-5-yl)amino]-5-(3-fluorophenyl)-7-methyl-7,8-dihydropteridin-6(5H)-one] | ≤ 0.1 µM |
| Cc1ccc(N2C(=O)[C@@H](C)N(C3CCCCC3)c3nc(Nc4ccc5[nH]ncc5c4)ncc32)cc1F [compound 121, (7R)-8-cyclohexyl-5-(3-fluoro-4-methylphenyl)-2-(1H-indazol-5-ylamino)-7-methyl-7,8-dihydropteridin-6(5H)-one] | ≤ 0.1 µM |
| C[C@@H]1C(=O)N(c2cccnc2)c2cnc(Nc3ccc4[nH]ncc4c3F)nc2N1C1CCCCC1 [compound 122, (7R)-8-cyclohexyl-2-[(4-fluoro-1H-indazol-5-yl)amino]-7-methyl-5-(pyridin-3-yl)-7,8-dihydropteridin-6(5H)-one] | ≤ 0.1 µM |
| COc1cc(Nc2ncc3c(n2)N(C2CCCCC2)[C@H](C)C(=O)N3c2cccc(C#N)c2)cc2cn[nH]c12 [compound 123, 3-[(7R)-8-cyclohexyl-2-[(7-methoxy-1H-indazol-5-yl)amino]-7-methyl-6-oxo-7,8-dihydropteridin-5(6H)-yl]benzonitrile] | 0.1 to 1 µM |
| C[C@@H]1C(=O)N(c2csc(C(=O)O)c2)c2cnc(Nc3ccc4[nH]ncc4c3)nc2N1C1CCCCC1 [compound 124, 4-[(7R)-8-cyclohexyl-2-(1H-indazol-5-ylamino)-7-methyl-6-oxo-7,8-dihydropteridin-5(6H)-yl]thiophene-2-carboxylic acid] | ≤ 0.1 µM |
| COc1cc(N2C(=O)[C@@H](C)N(C3CCCCC3)c3nc(Nc4ccc5[nH]ncc5c4)ncc32)ccc1C [compound 125, (7R)-8-cyclohexyl-2-(1H-indazol-5-ylamino)-5-(3-methoxy-4-methylphenyl)-7-methyl-7,8-dihydropteridin-6(5H)-one] | ≤ 0.1 µM |

Continued, values first:

| IC50 | SMILES |
| --- | --- |
| ≤ 0.1 µM | COc1ccc(N2C(=O)[C@@H](C)N(C3CCCCC3)c3nc(Nc4ccc5[nH]ncc5c4)ncc32)cc1C#N [compound 104, 5-[(7R)-8-cyclohexyl-2-(1H-indazol-5-ylamino)-7-methyl-6-oxo-7,8-dihydropteridin-5(6H)-yl]-2-methoxybenzonitrile] |
| ≤ 0.1 µM | C[C@@H]1C(=O)N(c2ccc(Cl)c(C#N)c2)c2cnc(Nc3ccc4[nH]ncc4c3)nc2N1C1CCCCC1 [compound 105, 2-chloro-5-[(7R)-8-cyclohexyl-2-(1H-indazol-5-ylamino)-7-methyl-6-oxo-7,8-dihydropteridin-5(6H)-yl]benzonitrile] |
| ≤ 0.1 µM | C[C@@H]1C(=O)N(c2cccc(C#N)c2)c2cnc(Nc3cc(F)c4[nH]ncc4c3)nc2N1C1CCCCC1 [compound 106, 3-[(7R)-8-cyclohexyl-2-[(7-fluoro-1H-indazol-5-yl)amino]-7-methyl-6-oxo-7,8-dihydropteridin-5(6H)-yl]benzonitrile] |
| ≤ 0.1 µM | C[C@@H]1C(=O)N(c2cccc(C#N)c2)c2cnc(Nc3ccc4[nH]nc(Cl)c4c3)nc2N1C1CCCCC1 [compound 108, 3-[(7R)-2-[(3-chloro-1H-indazol-5-yl)amino]-8-cyclohexyl-7-methyl-6-oxo-7,8-dihydropteridin-5(6H)-yl]benzonitrile] |
| ≤ 0.1 µM | COCc1cccc(N2C(=O)[C@@H](C)N(C3CCCCC3)c3nc(Nc4ccc5[nH]ncc5c4)ncc32)c1 [compound 110, (7R)-8-cyclohexyl-2-(1H-indazol-5-ylamino)-5-[3-(methoxymethyl)phenyl]-7-methyl-7,8-dihydropteridin-6(5H)-one] |
| ≤ 0.1 µM | COc1ccc(N2C(=O)[C@@H](C)N(C3CCCCC3)c3nc(Nc4ccc5[nH]ncc5c4)ncc32)cc1OC [compound 111, (7R)-8-cyclohexyl-5-(3,4-dimethoxyphenyl)-2-(1H-indazol-5-ylamino)-7-methyl-7,8-dihydropteridin-6(5H)-one] |
| ≤ 0.1 µM | C[C@@H]1C(=O)N(c2cc(F)cc(C#N)c2)c2cnc(Nc3ccc4[nH]ncc4c3)nc2N1C1CCCCC1 [compound 112, 3-[(7R)-8-cyclohexyl-2-(1H-indazol-5-ylamino)-7-methyl-6-oxo-7,8-dihydropteridin-5(6H)-yl]-5-fluorobenzonitrile] |
| ≤ 0.1 µM | Cc1ccc(N2C(=O)[C@@H](C)N(C3CCCCC3)c3nc(Nc4ccc5[nH]ncc5c4)ncc32)cn1 [compound 113, (7R)-8-cyclohexyl-2-(1H-indazol-5-ylamino)-7-methyl-5-(6-methylpyridin-3-yl)-7,8-dihydropteridin-6(5H)-one] |
| ≤ 0.1 µM | C[C@@H]1C(=O)N(c2cccc([S+](C)[O-])c2)c2cnc(Nc3ccc4[nH]ncc4c3)nc2N1C1CCCCC1 (stereo partly drawn) [compound 114, (7R)-8-cyclohexyl-2-(1H-indazol-5-ylamino)-7-methyl-5-[3-(methylsulfinyl)phenyl]-7,8-dihydropteridin-6(5H)-one] |
| ≤ 0.1 µM | C[C@@H]1C(=O)N(c2cccc(C#N)c2)c2cnc(Nc3ccc4[nH]nc(F)c4c3)nc2N1C1CCCCC1 [compound 115, 3-[(7R)-8-cyclohexyl-2-[(3-fluoro-1H-indazol-5-yl)amino]-7-methyl-6-oxo-7,8-dihydropteridin-5(6H)-yl]benzonitrile] |
